Legend:
HT-1080 cells [1] = assay: LOC library screening and confirmation: suppression of erastin-induced death; format: cell-based; settings: Homo sapiens, LOC library screening and confirmation studies, read-out: EC50, inhibition of erastin-induced ferroptosis
Experimental: The LOC library was screened over the course of several days. 384-well glass bottom assay plates (Corning) were seeded with 1,000 HT-1080 cells/well the day before the experiment. The day of the experiment, LOC mother plates were thawed at room temperature for 1 hour and spun at 1000 rpm for 1 minute prior to use. Using a BioMek liquid handing robot, 2 μL of compound solution from each LOC library mother plate was transferred to a 384 deep well “daughter” plate (Grenier) containing 148 μL of cell culture media. The cell culture media in each assay plate was then removed by flicking and, using a BioMek FX, replaced with 36 μL of growth media containing erastin (5 μM final). To this was added 4 μL of the drug solution from the daughter plate, for a final screening concentration of 5.3 μg/mL for each LOC library compound. 4 wells containing DMSO alone (no erastin), 4 wells containing 100 μM DFO alone (no erastin), 4 wells containing erastin plus DMSO, and 4 wells containing erastin plus 100 μM DFO (positive control) were included as controls on each plate. Each drug daughter plate was aliquoted separately to duplicate assay plates. Plates were then spun briefly (1000 rpm, 5 seconds) and returned to the 37° C. tissue culture incubator. 24 hours later, cell viability was assessed by Alamar Blue as described above.
Candidate hits from the LOC library screen were identified. […]

[2] = tested on: mice, IRI of the cremaster muscle; assay: In vivo microscopy on the postischemic cremaster muscle; design: species or system mouse
Experimental: The surgical preparation of the cremaster muscle was performed as originally described by Baez with minor modifications (Traykova-Brauch et al., 2008; Mulay et al., 2013). Mice were anesthetized using a ketamine/xylazine mixture (100 mg/kg ketamine and 10 mg/kg xylazine), administrated by i.p. injection. The left femoral artery was cannulated in a retrograde manner for administration of microspheres and drugs. The right cremaster muscle was exposed through a ventral incision of the scrotum. The muscle was opened ventrally in a relatively avascular zone, using careful electrocautery to stop any bleeding, and spread over the transparent pedestal of a custom-made microscopic stage. Epididymis and testicle were detached from the cremaster muscle and placed into the abdominal cavity. Throughout the procedure as well as after surgical preparation during in vivo microscopy, the muscle was superfused with warm-buffered saline.
The setup for in vivo microscopy was centered around equipment for stroboscopic fluorescence epiillumination microscopy. […] Microscopy images were obtained with Olympus water immersion lenses (20×/numerical aperture (N.A.) 0.5 and 10×/N.A. 0.3) and recorded with an analog black-and-white charge-coupled device (CCD) video camera (Cohu 4920; Cohu) and an analog video recorder (AG-7350-E; Panasonic). […] For measurement of centerline blood flow velocity, green fluorescent microspheres (2-μm diameter; Molecular Probes) were injected via the femoral artery catheter, and their passage through the vessels of interest was recorded using the FITC filter cube under appropriate stroboscopic illumination (exposure, 1 ms; cycle time, 10 ms; length of the electromagnetic wave, 488 nm), integrating video images for sufficient time (>80 ms) to allow for the recording of several images of the same bead on one frame. […]

HT-1080 cells [3] = assay: Cytosolic and lipid ROS production (H2DCFDA, C11-BODIPY flow cytometry) in HT-1080 cells; format: cell-based, human; settings: erastin (10 μM)
Experimental: The day before the experiment, 200,000 cells/well were seeded in 6-well dishes (Corning Inc., Corning, N.Y.). The day of the experiment, cells were treated with test compounds for the indicated times, then harvested by trypsinization, resuspended in 500 μL Hanks Balanced Salt Solution (HBSS, Gibco, Invitrogen Corp., Carlsbad, Calif.) containing either H2DCFDA (25 μM), C11-BODIPY(581/591) (2 μM) or MitoSOX (5 μM) (all from Molecular Probes, Invitrogen) and incubated for 10 minutes at 37° C. in a tissue culture incubator. Cells were then resuspended in 500 μL of fresh HBSS, strained through a […] cell strainer (BD Falcon, BD Biosciences, San Jose, Calif.), and analyzed using a flow cytometer (FACSCalibur or Accuri C6, BD Biosciences), which was equipped with 488-nm laser for excitation. Data was collected from the FL1 (H2DCFDA, C11-BODIPY) or FL2 channel (MitoSOX). A minimum of 10,000 cells were analyzed per condition.

For CCOC(=O)c1ccc(NC2CCCCC2)c(N)c1 [SRS8-28 (Fer-1), ethyl 3-amino-4-(cyclohexylamino)benzoate], the EC50 (HT-1080 cells [1]) was 60 nM, the leukocyte adherence ([2]; 1 h and 2 h after onset of reperfusion) was “remains unchanged” and the leukocyte transmigration ([2]; ferrostatin-1 2 mg/kg i.p.) was “Significantly reduced”. For the same compound, the leukocyte rolling ([2]; within the first hour after reperfusion) was “is affected” and the “effect of inhibitor on erastin-induced ROS accumulation” value (HT-1080 cells [3]) was “prevent erastin-induced accumulation of cytosolic and lipid ROS”.
